Patent US20120309811A1, “P-GLYCOPROTEIN-SPECIFIC NON-COMPETITIVE PEPTIDE AND PEPTIDOMIMETIC MODULATORS” (UNIVERSITE CLAUDE BERNARD - LYON 1, priority 2009, published 2012)
Square brackets hold non-standard residues; d marks the D form. Peptide text beside a SMILES is read from it. * marks the point of attachment. Hyp = O=C(O)[C@@H]1C[C@@H](O)CN1; Cbz = O=C(OCc1ccccc1)*; Boc = CC(C)(C)OC(=O)*; OBn = c1ccc(CO*)cc1; Bn = c1ccc(C*)cc1; OtBu = CC(C)(C)O*

What was measured:
ABCB1 = ABCB1 (Homo sapiens, UniProt P08183); design: key: the inhibitor is active (+); it is inactive (−); the effect is unknown (?); details: cited from earlier work
[1] = system: NIH3T3 cells expressing or not expressing P-gp; assay: Cytotoxicity test (MTT), cell survival after 72 h; format: cell-based
Experimental: The cells are seeded in a proportion of 10 000 per well in 96-well plates and incubated for 24 hours at 37° C. under 5% CO2. Varied concentrations of compounds Nos 2, 3, 4, 5 and 6, up to 20 times the IC50, are then added. The cytotoxicity is evaluated colorinnetrically with 3-(4,5-dimethylthiazol-2-yl)-2,5-diphenyltetrazolium bromide (MTT).
Increasing concentrations of compound No. 4 or No. 6 are applied to NIH3T3 cells expressing or not expressing P-gp. The cell survival is measured after 72 h and is expressed as a percentage. At 10 times the half-maximum-effect concentration, these two compounds are not toxic. Above this, the toxicity of compound No. 4 remains negligible, while that of compound No. 6 remains limited.

P-gp = biological target: T1, P-gp (Homo sapiens, UniProt P08183); assay: Flow cytometry, inhibition of mitoxantrone efflux in NIH3T3 cells expressing P-gp; format: cell-based; details: for % pump inhibition at 10 μM of compound, P-gp / inhibition at 1 h, 10 µM: 10 μM compound; for % pump inhibition at 10 μM of compound, P-gp / IC50 / inhibition at 1 h, 10 µM: mitoxantrone efflux; for IC50: mathematical adjustment of experimental points; for inhibition at 1 h, 10 µM: human, probe mitoxantrone, read-out: % pump inhibition at 10 μM of compound, P-gp
T1 construct: expressed in transfected cells; host or cells: NIH3T3 (ATCC CRL-1658), stably transfected with retroviral vector pHaMDR1/A
Excerpt: (§1) The HEK-293 human fibroblast line (ATCC cell collection CRL-1573) is transfected with either BCRP (Robey R. W. et al. 2003, Br. J. Cancer 89(10) 1971-1978, [32]) or ABCC1, cloned into the pcDNA3.1 expression vector (Invitrogen), or with the empty pcDNA3.1 vector. The NIH3T3 cell line (ATCC CRL-1658) was stably transfected with pHaMDR1/A (Cardarelli et al. 1995 Cancer Res 55 1086-1091, [33]), which is a retroviral vector that expresses the wild-type MDR1 protein. The BHK-21 cell line (ATCC CCL-10) was transfected with MRP1 cloned into the pcDNA3.1 expression vector, or the empty pcDNA3.1 vector. The cells are maintained in culture in DMEM glutamax II (Invitrogen) supplemented with 10% of fetal bovine serum and 1% of penicillin/streptomycin. The data are processed with Sigmaplot V11 (http://www.systat.com/), and the equation for mathematical adjustment of the experimental data for calculating the IC50 values: f=a×(1−exp(−b×x)) (a=slope, b=intercept on the y-axis).
(§2) The cells expressing P-gp, BCRP and MRP, and their corresponding controls, are placed in the presence of 10 and 2 μM of mitoxantrone for the first two transporters and of 1 μM of daunorubicin for the 3rd. Substrate accumulation is carried out for 30 minutes at 37° C. in the presence or absence of varied concentrations of the molecules tested, at a final DMSO (dimethyl sulfoxide) concentration of 0.5%. After washing with PBS (phosphate buffered saline), the cells are incubated in medium containing the same concentrations of molecules tested as previously, for 1 h at 37° C. The intracellular fluorescence of mitoxantrone and daunorubicin anticancer agent is measured with the FACscan flow cytometer (Becton Dickinson, Mountain, View, Calif.). The drugs are excited at 488 nm. The emission of mitoxantrone is measured at 650 nm, whereas the emission of daunorubicin is measured at 530 nm. The effectiveness of the molecules tested is expressed by equation 1: % effectiveness=100×(FA−FBG)/(FC−FBG), where FA corresponds to the intracellular level of substrate measured in the cells overexpressing ABCG2 (corresponding to the lowest level of fluorescence in the absence of inhibitor), FC corresponds to the fluorescence in the control cells transfected with the empty vector (and therefore to the maximum accumulation of substrate in the cells) and FBG corresponds to the fluorescence measured in the absence of substrate and in the presence of inhibitor.
(§3) The inhibitory effect of the compounds is quantified by measuring, by flow cytometry, the efflux of an anticancer drug transported by the pump under consideration, i.e. mitoxantrone for P-gp and BCRP and daunorubicin for MRP1. It is compared with that of the reference product, reversin 121. The products are tested at 10 μM, then at 2 μM for those which block at least 80% of the efflux of mitoxantrone, and for some, a more complete concentration range is tested so as to establish the concentration value producing 50% inhibition, IC50, as indicated in FIG. 3.

MRP1 = biological target: T2, MRP1 (Homo sapiens, UniProt P33527); assay: Flow cytometry, inhibition of daunorubicin efflux in cells transfected with MRP1; format: cell-based; details: 10 μM compound
T2 construct: expressed in transfected cells; host or cells: BHK-21 (ATCC CCL-10) with MRP1 in pcDNA3.1; HEK-293 transfected with ABCC1 in pcDNA3.1 is also described
Excerpt: as §1, §2
The inhibitory effect of the compounds is quantified by measuring, by flow cytometry, the efflux of an anticancer drug transported by the pump under consideration, i.e. mitoxantrone for P-gp and BCRP and daunorubicin for MRP1. It is compared with that of the reference product, reversin 121. […]

BCRP = biological target: T3, BCRP (Homo sapiens, UniProt Q9UNQ0); assay: Flow cytometry, inhibition of mitoxantrone efflux in HEK-293 cells transfected with BCRP; format: cell-based; details: 10 μM compound
T3 construct: expressed in transfected cells; host or cells: HEK-293 (ATCC CRL-1573), pcDNA3.1 expression vector (Invitrogen)
T3 sequence (Q9UNQ0 1-655): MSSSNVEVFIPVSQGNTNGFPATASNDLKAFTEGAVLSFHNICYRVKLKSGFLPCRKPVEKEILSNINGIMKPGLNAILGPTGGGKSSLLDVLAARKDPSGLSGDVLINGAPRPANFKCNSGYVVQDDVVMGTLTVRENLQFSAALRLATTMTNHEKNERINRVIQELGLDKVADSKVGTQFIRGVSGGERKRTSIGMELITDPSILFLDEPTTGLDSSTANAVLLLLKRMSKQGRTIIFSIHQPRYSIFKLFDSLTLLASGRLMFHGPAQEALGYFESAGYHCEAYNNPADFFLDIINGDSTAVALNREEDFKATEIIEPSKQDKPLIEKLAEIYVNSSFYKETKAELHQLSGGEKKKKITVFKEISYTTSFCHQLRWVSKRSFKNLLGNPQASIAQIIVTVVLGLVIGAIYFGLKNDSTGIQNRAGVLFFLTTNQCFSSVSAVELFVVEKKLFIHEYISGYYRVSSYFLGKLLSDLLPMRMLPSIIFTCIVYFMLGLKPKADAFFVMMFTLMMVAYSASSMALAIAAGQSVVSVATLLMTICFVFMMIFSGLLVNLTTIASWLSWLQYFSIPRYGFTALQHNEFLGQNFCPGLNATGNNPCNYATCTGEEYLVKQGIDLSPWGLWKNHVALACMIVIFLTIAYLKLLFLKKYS
Excerpt: as §1, §2, §3

ABCG2 = biological target: T4, ABCG2 (Homo sapiens, UniProt Q9UNQ0); design: key: the inhibitor is active (+); it is inactive (−); the effect is unknown (?); details: cited from earlier work
T4 sequence (Q9UNQ0 1-655): T3 sequence (Q9UNQ0 1-655)

ABCC1 = ABCC1 (Homo sapiens, UniProt P33527); details: cited from earlier work
[2] = phase III; cited from earlier work

Sequence of ABCB1 (P08183 whole entry): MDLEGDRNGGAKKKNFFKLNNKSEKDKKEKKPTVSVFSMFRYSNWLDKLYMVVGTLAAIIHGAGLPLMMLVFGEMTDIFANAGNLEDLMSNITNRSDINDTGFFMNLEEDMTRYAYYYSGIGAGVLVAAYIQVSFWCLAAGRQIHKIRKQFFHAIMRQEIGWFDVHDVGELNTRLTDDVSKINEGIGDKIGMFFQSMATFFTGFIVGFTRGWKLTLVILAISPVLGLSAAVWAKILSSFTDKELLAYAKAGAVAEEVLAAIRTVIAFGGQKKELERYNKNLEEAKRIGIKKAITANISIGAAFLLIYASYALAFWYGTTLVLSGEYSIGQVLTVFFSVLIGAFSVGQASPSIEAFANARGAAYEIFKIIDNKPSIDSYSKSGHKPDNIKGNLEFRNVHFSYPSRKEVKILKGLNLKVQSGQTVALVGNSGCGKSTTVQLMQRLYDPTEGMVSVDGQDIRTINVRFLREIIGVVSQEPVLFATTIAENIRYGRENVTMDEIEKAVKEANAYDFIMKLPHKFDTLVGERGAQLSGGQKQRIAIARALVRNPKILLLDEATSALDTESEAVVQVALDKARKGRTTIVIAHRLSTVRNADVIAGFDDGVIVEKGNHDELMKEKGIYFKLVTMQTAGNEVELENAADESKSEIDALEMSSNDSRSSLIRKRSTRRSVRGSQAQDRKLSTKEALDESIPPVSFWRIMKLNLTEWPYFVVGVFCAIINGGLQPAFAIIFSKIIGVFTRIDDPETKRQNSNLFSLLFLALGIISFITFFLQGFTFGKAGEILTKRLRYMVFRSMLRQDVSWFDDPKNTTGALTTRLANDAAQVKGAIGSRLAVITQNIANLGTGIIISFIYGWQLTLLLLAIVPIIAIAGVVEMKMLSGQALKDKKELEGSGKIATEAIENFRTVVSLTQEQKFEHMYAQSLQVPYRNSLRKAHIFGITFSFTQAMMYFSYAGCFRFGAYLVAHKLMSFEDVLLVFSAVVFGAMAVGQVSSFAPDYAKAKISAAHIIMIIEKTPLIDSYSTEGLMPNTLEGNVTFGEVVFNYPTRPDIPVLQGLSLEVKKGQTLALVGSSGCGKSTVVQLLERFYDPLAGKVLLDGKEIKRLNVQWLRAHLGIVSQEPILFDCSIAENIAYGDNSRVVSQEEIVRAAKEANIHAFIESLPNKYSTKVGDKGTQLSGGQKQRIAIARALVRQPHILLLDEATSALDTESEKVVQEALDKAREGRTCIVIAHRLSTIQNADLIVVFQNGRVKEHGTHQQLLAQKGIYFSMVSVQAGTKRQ
T1 sequence (P08183 whole entry): as above
Sequence of ABCC1 (P33527 whole entry): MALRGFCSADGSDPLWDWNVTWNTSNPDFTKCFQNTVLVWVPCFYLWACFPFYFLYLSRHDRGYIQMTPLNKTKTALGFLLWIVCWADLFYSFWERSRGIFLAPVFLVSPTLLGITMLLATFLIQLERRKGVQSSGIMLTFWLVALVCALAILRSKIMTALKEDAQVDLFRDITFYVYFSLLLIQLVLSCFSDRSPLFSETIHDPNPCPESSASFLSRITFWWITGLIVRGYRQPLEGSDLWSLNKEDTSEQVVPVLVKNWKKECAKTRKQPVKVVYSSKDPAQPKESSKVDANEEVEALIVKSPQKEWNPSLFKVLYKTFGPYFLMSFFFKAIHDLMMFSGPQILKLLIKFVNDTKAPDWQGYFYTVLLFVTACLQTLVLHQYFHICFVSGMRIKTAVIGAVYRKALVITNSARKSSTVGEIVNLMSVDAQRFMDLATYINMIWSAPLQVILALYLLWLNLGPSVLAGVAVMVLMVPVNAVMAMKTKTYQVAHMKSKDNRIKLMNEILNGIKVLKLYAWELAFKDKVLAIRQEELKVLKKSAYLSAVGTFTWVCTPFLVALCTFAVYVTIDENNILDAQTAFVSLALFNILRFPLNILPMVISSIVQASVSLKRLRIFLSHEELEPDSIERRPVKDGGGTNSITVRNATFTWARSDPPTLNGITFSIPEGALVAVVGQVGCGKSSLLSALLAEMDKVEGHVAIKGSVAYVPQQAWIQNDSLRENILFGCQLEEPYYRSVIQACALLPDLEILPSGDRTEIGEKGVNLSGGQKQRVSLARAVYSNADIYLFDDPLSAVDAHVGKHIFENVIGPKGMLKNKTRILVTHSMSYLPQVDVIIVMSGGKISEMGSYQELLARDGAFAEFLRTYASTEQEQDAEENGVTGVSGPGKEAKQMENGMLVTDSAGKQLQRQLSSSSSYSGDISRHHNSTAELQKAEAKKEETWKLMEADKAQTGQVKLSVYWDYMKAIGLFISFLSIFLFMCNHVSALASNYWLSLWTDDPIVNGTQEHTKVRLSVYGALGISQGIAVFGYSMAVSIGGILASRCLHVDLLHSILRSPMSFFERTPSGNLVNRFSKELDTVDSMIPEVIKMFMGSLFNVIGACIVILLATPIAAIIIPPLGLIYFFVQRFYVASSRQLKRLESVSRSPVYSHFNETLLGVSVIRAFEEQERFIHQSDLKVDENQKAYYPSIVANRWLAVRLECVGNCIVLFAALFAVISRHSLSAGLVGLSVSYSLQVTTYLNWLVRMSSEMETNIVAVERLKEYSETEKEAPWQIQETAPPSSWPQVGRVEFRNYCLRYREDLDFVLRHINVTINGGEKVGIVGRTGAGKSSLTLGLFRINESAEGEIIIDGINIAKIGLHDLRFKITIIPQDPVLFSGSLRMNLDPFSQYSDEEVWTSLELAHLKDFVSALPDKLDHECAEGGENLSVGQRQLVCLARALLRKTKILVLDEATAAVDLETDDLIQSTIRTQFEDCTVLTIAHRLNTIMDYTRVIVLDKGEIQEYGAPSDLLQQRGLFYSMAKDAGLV
T2 sequence (P33527 whole entry): as above

SMILES	activity of MDR inhibitor on ABCB1 (ABCB1)	IC50 (P-gp)	activity of MDR inhibitor on ABCG2 (ABCG2)	activity of MDR inhibitor on ABCC1 (ABCC1)	also measured
COC(=O)c1cnc2n1CCc1ccccc1C2=C1CCN(CCc2ccc(OCc3ccc4ccccc4n3)cc2)CC1 [R101933 (laniquidar)]	+				
CC(C)(C)OC(=O)[C@H](CCCCNC(=O)OCc1ccccc1)NC(=O)[C@@H]1C[C@@H](OCc2ccccc2)CN1C(=O)OC(C)(C)C [No. 4, N^α-Boc-trans-L-4-Hyp(Bn)-L-Lys(Z)-OtBu] (Boc-[Hyp](Bn)-Lys(Cbz)-OtBu)		0.73 ± 0.2 µM			cytotoxicity ([1]; above 10 times the half-maximum-effect concentration): negligible; cytotoxicity ([1]; at 10 times the half-maximum-effect concentration): not toxic; IC50 for P-gp compared with that of reversin 121 (P-gp): twice as good; % pump inhibition at 10 μM of compound, P-gp (P-gp): 99.7 ± 11.0%; % pump inhibition at 10 μM of compound, MRP1 (MRP1): low or zero; inhibition at 1 h, 10 µM (MRP1; human, probe daunorubicin, read-out: % pump inhibition at 10 μM of compound, MRP1): < 10%; % pump inhibition at 10 μM of compound, BCRP (BCRP; 10 µM): 16.6 ± 3.4%
CC(C)(C)OC(=O)N[C@@H](CC(=O)OCc1ccccc1)C(=O)N[C@@H](CCCCNC(=O)OCc1ccccc1)C(=O)OC(C)(C)C [Reversin 121, reference compound] (Boc-Asp(OBn)-Lys(Cbz)-OtBu)		1.41 ± 0.34 µM			% pump inhibition at 10 μM of compound, P-gp (P-gp): 75.8 ± 1.6%; % pump inhibition at 10 μM of compound, BCRP (BCRP): 37.2 ± 3.7%
COc1cc2c(cc1OC)CN(CCc1ccc(NC(=O)c3cc(OC)c(OC)cc3NC(=O)c3cnc4ccccc4c3)cc1)CC2 [XR9576 (tariquidar)]	+		+		
C/C=C/C[C@@H](C)C(=O)[C@H]1C(=O)N[C@@H](C(C)C)C(=O)N(C)CC(=O)N(C)[C@@H](CC(C)C)C(=O)N[C@@H](C(C)C)C(=O)N(C)[C@@H](CC(C)C)C(=O)N[C@@H](C)C(=O)N[C@H](C)C(=O)N(C)[C@@H](CC(C)C)C(=O)N(C)[C@@H](CC(C)C)C(=O)N(C)[C@@H](C(C)C)C(=O)N1C [PSC833 (valspodar)]	+		−		
CCOC/C=C/c1ccc(-c2nc(-c3ccc(NC(C)C)cc3)c(-c3ccc(NC(C)C)cc3)[nH]2)cc1 [ONT-093 (ontogeny)]	+			−	
COc1cc(C(=O)C(=O)N2CCCC[C@H]2C(=O)OC(CCCc2cccnc2)CCCc2cccnc2)cc(OC)c1OC [VX-710 (biricodar)]	+		+	+	
CC(C)(C)OC(=O)[C@H](CCCCNC(=O)OCc1ccccc1)NC(=O)[C@@H]1C[C@@H](OC(=O)Cc2ccccc2)CN1C(=O)OC(C)(C)C (relative stereo) [No. 2, N^α-Boc-trans-L-4-Hyp(COBn)-L-Lys(Z)-OtBu]					% pump inhibition at 10 μM of compound, P-gp (P-gp): 68.0 ± 10.0%; % pump inhibition at 10 μM of compound, BCRP (BCRP): 10.0 ± 7.5%
O[C@@H](COc1cccc2ncccc12)CN1CCN([C@@H]2c3ccccc3[C@@H]3[C@H](c4ccccc42)C3(F)F)CC1 [Ly335979 (zosuquidar)]			−	−	clinical outcome [2]: stopped in phase III because of their adverse effects
COc1cc2c(cc1OC)CN(CCc1ccc(NC(=O)c3cccc4c(=O)c5cccc(OC)c5[nH]c34)cc1)CC2 [GF120918 (elacridar)]	+		+	−	
CC(C)(C)OC(=O)[C@H](CCCCNC(=O)OCc1ccccc1)NC(=O)[C@@H]1C[C@@H](OCC2CCCCC2)CN1C(=O)OC(C)(C)C [No. 5, N^α-Boc-trans-L-4-Hyp(CH2cHex)-L-Lys(Z)-OtBu]		1.13 ± 0.34 µM			inhibition at 1 h, 10 µM (P-gp): 82.2 ± 10.8%; % pump inhibition at 10 μM of compound, BCRP (BCRP): 18.8 ± 10.0%
CC(C)(C)OC(=O)C(CCCCNC(=O)OCc1ccccc1)NC(=O)C1CC(OC(=O)C2CCCCC2)CN1C(=O)OC(C)(C)C [No. 3, N^α-Boc-trans-L-4-Hyp(COcHex)-L-Lys(Z)-OtBu]		1.68 ± 0.28 µM			IC50 for P-gp compared with that of reversin 121 (P-gp): better than that of reversin; inhibition at 1 h, 10 µM (P-gp): 106 ± 13.4%; % pump inhibition at 10 μM of compound, MRP1 (MRP1; 10 µM): non measurable; inhibition at 1 h, 10 µM (BCRP; human, HEK-293 cells transfected with BCRP, probe mitoxantrone, read-out: % pump inhibition at 10 μM of compound, BCRP): 11.2%
